Test [1] relates to sensitized and protected NSCLC cell lines. The experiment in a line: 7AAD cell cycle flow cytometry. The test is classed as cell-based, human. The protocol:
Cell lines were plated at 1.5×10^6 cells per 10 cm plate and treated with drug for 4 days. Cells were then dissociated, fixed with 100% ice cold Ethanol for at least 2 hours, incubated for 30 minutes with 1 mg/mL RNase A and resuspended in 20 μg/mL 7AAD. 30,000 events were collected on the BD Facscalibur™ and analyzed with the ModFit LT™ software. In cases where etoposide treated cells had such abnormal ploidy that ModFit LT™ was unable to correctly model the cell cycle, the data was analyzed manually on FlowJo™ software by setting the gates on the etoposide sample and copying them to the etoposide+DZNep and etoposide shEZH2 samples.
For 7AAD-cell cycle analysis, cell lines were plated at 1.5×10^6 cells per 10 cm plate and treated with drug for 4 days. Cells were then dissociated, fixed with 100% ice cold Ethanol for at least 2 hours, incubated for 30 minutes with 1 mg/mL DNase-free RNase A (Thermo) and resuspended in 20 μg/mL 7-Aminoactinomycin D (7AAD; Invitrogen). 30,000 events were collected on the BD FORTESSA™ and analyzed with the MODFIT LT™ software. Results from three to four independent biological replicate experiments were averaged for each cell line.

Test [2] has as its system BRG1 mutant and BRG1 wild-type cell lines. The experiment in a line: Anaphase bridge analysis. The test is classed as cell-based, human. Here is the method:
To quantify anaphase bridges, cells were grown on 4-well cultures slides (Lab Tek II). Adherent cells were fixed with 4% paraformaldehyde for 20 min, washed and stained with Vectashield™ with 4′,6-diamidino-2-phenylindole (DAPI; Vector Labs). Images were taken of each anaphase structure, and the number of anaphases with bridges over the total number of anaphases (between 11 and 34 total anaphases per well of a 4-well chamber slide) was recorded for each of three or more independent biological replicate experiments.

For test [3], the system named is HCC95. The test is described as follows: Growth rate over 10 day time-course (Cell Titer Glo). It is filed as cell-based, human. The note with it: HCC95, 1 μM DZNep, 10 day time-course. Here is the method: (§1) FIG. 2A depicts a Western Blot for EZH2 and H3K27me3 performed on whole cell extracts 4 days after indicated treatments, β-actin shown as a loading control. FIG. 2B depicts a graph of the growth rates of matched shGFP and shGFP cells treated with 1 μM DZNep and assayed by Cell Titer Glo at days 3, 5, 7, and 10 post plating at equal densities. Average luminescence ±s.e.m. for 3 replicate wells is shown based on when each shGFP cell line reached logarithmic growth, * indicates p<0.03. FIG. 2C depicts a graph of the response to Etoposide. Cell lines were plated at equal densities and treated a range of etoposide doses with or without 1 μM DZNep. On the 4th day, cell viability was measured using Cell Titer Glo and the percent survival at each dose of etoposide was calculated. Dose response curves were generated for the no DZNep and DZNep treated cells using the GraphPad prism software and IC50s were extrapolated. The fold change±s.e.m. of etoposide IC50 in response to DZNep is plotted, n=4 biological replicates, * indicates p<0.05. Cell lines with mutations in Brg1, EGFR and B-Raf are indicated.

Test [4] concerns H441. The test is described as above. It is filed as cell-based, human. The note with it: H441, 1 μM DZNep, 10 day time-course. Here is the method: as §1
For test [5], the system named is HCC15. The description is as above. The following applies: HCC15, 1 μM DZNep, 10 day time-course. The test is classed as cell-based, human. The protocol:
as §1

Test [6] deals with H157. The description is as above. The following applies: H157, 1 μM DZNep, 10 day time-course. The test is classed as cell-based, human. The protocol:
as §1

Test [7] has as its system Calu6. The description is as above. The note with it: Calu6, 1 μM DZNep, 10 day time-course. It is filed as cell-based, human. Here is the method:
as §1

Test [8] has as its system H23 xenografts. The test is described as follows: Xenograft tumor growth in nude mice. The test is classed as in vivo, Foxn1nu (nude) mice. The note with it: H23, DZNep 1 mg/kg/day twice per week for 2 weeks (dosing scheme B). The protocol:
(§2) To determine if the protected and sensitized phenotypes could be observed in vivo, cells were transplanted subcutaneously, tumors allowed to initiate, and mice treated with etoposide and DZNep. 12 days after cell injection, tumor bearing mice were randomized into groups that received either etoposide (20 mg/kg/day) or placebo (corn oil) daily for five days. The cohorts were further subdivided into groups that also received DZNep, either 2 mg/kg/day twice during the first week (dosing scheme A), or 1 mg/kg/day twice during the first two weeks (dosing scheme B).
(§3) Cell lines were dissociated into single cells, counted and resuspended at 1×10^6 cells per 250 μL of 1:1 media/matrigel (BD). 8- to 16-week-old Foxn1nu (nude) mice (Harlan) were injected subcutaneously with 1×10^6 cells in four spots on flanks. Chemo and DZNep were administered from day 12 to day 17 post injections, Etoposide: 20 mg/kg/day i.p. in corn oil once per day for 5 consecutive days, and DZNep 2 mg/kg/day i.p. in corn oil twice per week for 1 week (dosing scheme A) OR 1 mg/kg/day i.p. in corn oil twice per week for 2 weeks (dosing scheme B). Tumor growth was measured every other day by caliper.
as §3, with “2-4” for “four”, “Etoposide” for “Chemo”, “injections; etoposide:” for “injections, Etoposide:”, “week, or” for “week (dosing scheme A) OR”, “weeks.” for “weeks (dosing scheme B).”, “caliper. All mouse experiments were approved by the CHB Animal Care and Use Committee and by the Dana-Farber Cancer Institute Institutional Animal Care and Use Committee, both accredited by AAALAC, and were performed in accordance with relevant institutional and national guidelines and regulations.” for “caliper.”

In test [9] the test system is H157 xenografts. The test is described as follows: Xenograft tumor growth in nude mice. The test is classed as in vivo, Foxn1nu (nude) mice. Here is the method:
as §2, §3
as §3, with “2-4” for “four”, “Etoposide” for “Chemo”, “injections; etoposide:” for “injections, Etoposide:”, “week, or” for “week (dosing scheme A) OR”, “weeks.” for “weeks (dosing scheme B).”, “caliper. All mouse experiments were approved by the CHB Animal Care and Use Committee and by the Dana-Farber Cancer Institute Institutional Animal Care and Use Committee, both accredited by AAALAC, and were performed in accordance with relevant institutional and national guidelines and regulations.” for “caliper.”

Entries after “also recorded” stand apart in the source; their conditions may differ.

For `Nc1nccc2c1ncn2[C@@H]1C=C(CO)[C@@H](O)[C@H]1O` [DZNep, 3-Deazaneplanocin A], the “average fewer cells in S phase vs etoposide alone” value in test [1] (protected cell lines, 10 μM etoposide + 1 μM DZNep, 4 days) was 10%; in [1] (protected lines, 5 μM etoposide, DZNep 1 μM or shEZH2, 4 days), 14%. For the same molecule, in test [1] (sensitized cell lines, 10 μM etoposide + 1 μM DZNep, 4 days), the “average more cells in S phase in response to DZNep” value worked out at 20%. In addition, the “average more cells in S phase” value in test [1] (sensitized lines, 5 μM etoposide, DZNep 1 μM or shEZH2, 4 days) is 14%. The “anaphase bridging when challenged with DZNep” value in test [2] (BRG1 mutant cell lines) was “increased anaphase bridging”; in test [2] (BRG1 wild-type lines) it was “significant decrease”. Moreover, the “anaphase bridging (TopoII dysfunction) in response to DZNep” value in [2] (HCC15 control line) is listed as “increase in TopoII dysfunction”. Moreover, the change in proliferation entry in test [3] is on record as “increased proliferation”. Further, the decrease in proliferation in [4] was determined as 2.1 fold; in test [5], 3.2 fold; in test [6], 2.1 fold; in test [7], 2.1 fold. For the same molecule, the “sensitivity of xenografts to DZNep as a single therapy” value in test [8] was “very sensitive; also recorded: sensitive”. In [9] (H157, DZNep 1 mg/kg/day twice per week for 2 weeks), the “efficacy of dosing scheme B” value is “not as effective”. In addition, the “tumor burden, DZNep alone vs untreated/vehicle” value in [9] (H157 xenografts, DZNep 2 mg/kg/day twice in first week (dosing scheme A)) is “effective at reducing tumor burden; also recorded: weakly effective”.
